Laboratory results taken from paper PMC12891850 (Acta Pharmaceutica Sinica. B, 2025).

Target: T1, aldehyde oxidase 1 (AOX1) (Homo sapiens, UniProt Q06278)
T1 sequence (Q06278 1-1338): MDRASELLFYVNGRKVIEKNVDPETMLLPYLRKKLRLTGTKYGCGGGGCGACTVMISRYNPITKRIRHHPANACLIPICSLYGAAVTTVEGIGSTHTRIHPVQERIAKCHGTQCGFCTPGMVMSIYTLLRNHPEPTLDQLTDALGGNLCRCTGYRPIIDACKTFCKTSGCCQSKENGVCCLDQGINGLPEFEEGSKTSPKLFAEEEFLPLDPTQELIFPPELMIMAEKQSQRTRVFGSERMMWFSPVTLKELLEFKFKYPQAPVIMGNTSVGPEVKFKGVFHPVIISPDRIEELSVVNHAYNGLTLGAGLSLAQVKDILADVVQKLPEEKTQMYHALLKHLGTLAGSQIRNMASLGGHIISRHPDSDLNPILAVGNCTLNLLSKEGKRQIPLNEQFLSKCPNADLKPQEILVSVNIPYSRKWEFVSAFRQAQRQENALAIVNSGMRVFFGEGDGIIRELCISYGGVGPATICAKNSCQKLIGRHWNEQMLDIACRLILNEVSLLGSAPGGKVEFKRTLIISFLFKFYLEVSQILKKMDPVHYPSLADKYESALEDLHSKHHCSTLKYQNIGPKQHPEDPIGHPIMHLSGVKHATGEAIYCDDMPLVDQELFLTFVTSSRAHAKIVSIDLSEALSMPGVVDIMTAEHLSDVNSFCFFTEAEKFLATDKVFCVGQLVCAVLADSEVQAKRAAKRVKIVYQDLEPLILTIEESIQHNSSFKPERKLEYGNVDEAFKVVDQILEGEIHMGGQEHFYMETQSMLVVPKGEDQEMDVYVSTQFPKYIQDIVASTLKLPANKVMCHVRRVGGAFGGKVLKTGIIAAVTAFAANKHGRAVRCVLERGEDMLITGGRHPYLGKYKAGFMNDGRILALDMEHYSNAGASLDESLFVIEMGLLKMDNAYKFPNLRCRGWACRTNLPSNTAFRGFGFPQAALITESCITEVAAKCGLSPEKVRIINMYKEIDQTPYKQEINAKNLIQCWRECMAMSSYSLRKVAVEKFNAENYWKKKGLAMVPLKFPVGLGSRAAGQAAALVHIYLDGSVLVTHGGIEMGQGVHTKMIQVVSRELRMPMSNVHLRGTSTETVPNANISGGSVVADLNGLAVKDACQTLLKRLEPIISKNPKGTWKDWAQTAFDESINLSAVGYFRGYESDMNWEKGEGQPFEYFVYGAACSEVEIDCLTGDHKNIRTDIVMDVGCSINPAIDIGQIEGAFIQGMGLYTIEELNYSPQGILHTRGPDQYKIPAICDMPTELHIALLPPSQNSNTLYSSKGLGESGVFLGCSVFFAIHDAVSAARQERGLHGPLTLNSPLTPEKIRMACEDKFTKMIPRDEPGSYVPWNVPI
Assay: SPR
Format: binding

CNC(=O)c1cc(Oc2ccc(NC(=O)Nc3ccc(Cl)c(C(F)(F)F)c3)c(F)c2)ccn1 [regorafenib]
Kd: 42.7 µM
